Source: US20090312367A1, “COMBINATION OF MODAFINIL AND AN ANTAGONIST OR INVERSE AGONIST OF THE H3 RECEPTOR” (Bioprojet, priority 2006, published 2009)

System: cats with MPTP-induced parkinsonism
Assay: Parkinson's disease model: wakefulness in cats with MPTP-induced parkinsonism
Assay type: in vivo
Conditions: MPTP-treated cats displaying sleepiness
Description: The inventors also investigated the combination of 1-{3-[3-(4-chlorophenyl)propoxy]propyl}piperidine and modafinil on wakefulness in cats with MPTP-induced parkinsonism. MPTP is a neurotoxin which selectively destroys dopaminergic neurons in the mesencephalon. MPTP-treated animals display sleepiness similar to that seen in many patients.

For `NC(=O)C[S+]([O-])C(c1ccccc1)c1ccccc1` (stereo not shown) [modafinil, 2-benzhydrylsulfinylthanamide], the wakefulness was “only a modest improvement in wakefulness”.
